Our source for the IC50 values is patent publication US20160296529A1, “AMINOTRIAZOLOPYRIDINE FOR USE IN THE TREATMENT OF INFLAMMATION, AND PHARMACEUTICAL COMPOSITIONS THEREOF” (priority 2012, published 2016).

Experiment [1] concerns the target T1, Recombinant human JAK2 catalytic domain (Homo sapiens, UniProt O60674).
T1 construct: amino acids 808-1132; catalog number PV4210; GST; purchased Invitrogen PV4210
Put plainly: JAK2 assay polyGT substrate. The class given is biochemical. On the procedure: Recombinant human JAK2 catalytic domain (amino acids 808-1132; catalog number PV4210) was purchased from Invitrogen. 0.05 mU of JAK2 was incubated with 2.5 μg polyGT substrate (Sigma catalog number P0275) in kinase reaction buffer (10 mM MOPS pH 7.5, 0.5 mM EDTA, 0.01% Brij-35, 1 mM DTT, 15 mM MgAc, 1 μM non-radioactive ATP, 0.25 μCi ^33P-gamma-ATP (Perkin Elmer, catalog number NEG602K001MC) final concentrations) with or without 5 μL containing test compound or vehicle (DMSO, 1% final concentration), in a total volume of 25 μL, in a polypropylene 96-well plate (Greiner, V-bottom). After 90 min at 30° C., reactions were stopped by adding of 25 μL/well of 150 mM phosphoric acid. […] 40 μL/well of Microscint-20 was added, the top of the plates was sealed and readout was performed using the Topcount (Perkin Elmer). Kinase activity was calculated by subtracting counts per min (cpm) obtained in the presence of a positive control inhibitor (10 μM staurosporine) from cpm obtained in the presence of vehicle. The ability of a test compound to inhibit this activity was determined as:
Percentage inhibition=((cpm determined for sample with test compound present−cpm determined for sample with positive control inhibitor) divided by (cpm determined in the presence of vehicle−cpm determined for sample with positive control inhibitor))*100. […]

Experiment [2] has as its system IL-2-induced STAT5 phosphorylation (JAK1/JAK3 pathway). As to the kind of experiment: Human whole blood assay (hWBA), IL-2 stimulation, phospho-STAT5 on CD4+ cells. The class given is cell-based. Particulars: 5 different donors. On the procedure:
A flow cytometry analysis was performed to establish JAK1 over JAK2 compound selectivity ex vivo using human whole blood. Therefore, blood is taken from human volunteers who gave informed consent. Blood is then equilibrated for 30 min at 37° C. under gentle rocking, then aliquoted in Eppendorf tubes. Compound is added at different concentrations and incubated at 37° C. for 30 min under gentle rocking and subsequently stimulated for 20 min at 37° C. under gentle rocking with interleukin 6 (IL-6) for JAK1-dependent pathway stimulation, Interferon alpha (IFNα) for JAK1/TYK2 pathway stimulation, interleukin 2 (IL-2) for JAK1/JAK3 pathway stimulation or GM-CSF for JAK2-dependent pathway stimulation. Phospho-STAT1 (for IL-6- and IFNα-stimulated cells) and phospho-STAT5 (for IL-2- and GM-CSF-stimulated cells) levels are then evaluated using FACS analysis. […]
Cells were then washed once with 1×PBS and analyzed on a FACSCanto II flow cytometer (BD Biosciences).
50,000 total events were counted and Phospho-STAT1 positive cells were measured after gating on CD4+ cells, in the lymphocyte gate for IL-6- and IFNα-stimulated cells. Phospho-STAT5 positive cells were measured after gating on CD4+ cells, in the lymphocyte gate for IL-2-stimulated cells. Phospho-STAT5 positive cells were measured after gating on CD33+ cells. […]

Several values for one entry are separate records, joined by “and”; a condition that tells them apart may be missing. Identical values can stand only once. Like-named read-outs stand apart in the source and are kept apart here.

A word on the IC50: it is the concentration that gives 50% inhibition.

T1 sequence (O60674 808-1132): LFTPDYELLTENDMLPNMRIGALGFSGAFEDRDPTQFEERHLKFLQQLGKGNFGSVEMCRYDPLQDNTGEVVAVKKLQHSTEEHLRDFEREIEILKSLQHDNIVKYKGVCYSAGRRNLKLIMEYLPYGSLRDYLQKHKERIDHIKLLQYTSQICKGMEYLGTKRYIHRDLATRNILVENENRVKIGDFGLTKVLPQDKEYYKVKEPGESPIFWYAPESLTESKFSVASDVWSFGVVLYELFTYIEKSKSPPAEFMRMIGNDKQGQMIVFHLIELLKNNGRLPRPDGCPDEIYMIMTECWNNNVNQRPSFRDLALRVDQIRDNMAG

With `Nc1nc2cccc(-c3ccc(CN4CCS(=O)(=O)CC4)cc3)n2n1` [Formula I, 5-[4-(1,1-Dioxothiomorpholin-4-ylmethyl)-phenyl]-[1,2,4]triazolo[1,5-a]pyridin-2-ylamine], the IC50 in experiment [1] (average, read-out: IC50 (average)) is 0.624 µM; in experiment [1] (individual determinations, read-out: IC50), 0.567 µM and 0.365 µM and 0.256 µM and 0.915 µM and 1.02 µM; in experiment [2], 19.6 µM.
